Laboratory results as given in ChEMBL document CHEMBL1201862, “PubChem BioAssay data set” (2004).
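Method: 48-hour compound exposure of cells in 96-well plates, five concentrations, linear interpolation of endpoints. At the GI50, growth is halved.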 Activity calls are given as the source filed them. Rule as the data show it: active = GI50 up to about 1.1 µM and inactive = higher.

What was measured:
Experiment in all cases: DTP human tumour cell line panel, 48 h
[1] = test system: A498
[2] = test system: BT-549
[3] = test system: CAKI-1
[4] = test system: HT-29
[5] = test system: Hs-578T
[6] = test system: K562
[7] = test system: M14
[8] = test system: MCF7
[9] = test system: MOLT-4
[10] = test system: NCI-H23
[11] = test system: NCI-H460
[12] = test system: OVCAR-3
[13] = test system: PC-3
[14] = test system: SK-MEL-28
[15] = test system: SK-MEL-5
[16] = test system: SNB-19
[17] = test system: T47D
[18] = test system: RPMI-8226
[19] = test system: SF-295
[20] = test system: LOX IMVI

SMILES | GI50 [1] | GI50 [2] | GI50 [3] | GI50 [4] | GI50 [5] | GI50 [6] | GI50 [7] | GI50 [8] | GI50 [9] | GI50 [10] | GI50 [11] | GI50 [12] | GI50 [13] | GI50 [14] | GI50 [15] | GI50 [16] | GI50 [17] | GI50 [18] | GI50 [19] | GI50 [20]
Cc1nc2c(ccc3[nH]c4ccccc4c32)s1 | 17.8 µM (inactive) | 19.1 µM (inactive) | 47.5 µM (inactive) | 16.9 µM (inactive) | 16.3 µM (inactive) | 22.3 µM (inactive) | 18.9 µM (inactive) | 26.7 µM (inactive) | 12.6 µM (inactive) | 30.2 µM (inactive) | 20.6 µM (inactive) | 20.6 µM (inactive) | 17.7 µM (inactive) | 21.1 µM (inactive) | 15.2 µM (inactive) | 37.8 µM (inactive) | 20.2 µM (inactive) |  |  | 
NS(=O)(=O)c1nnc(NS(=O)(=O)c2ccccc2[N+](=O)[O-])s1 | > 100 µM (inactive) | > 100 µM (inactive) | > 100 µM (inactive) | > 100 µM (inactive) | > 100 µM (inactive) | > 100 µM (inactive) | > 100 µM (inactive) | > 100 µM (inactive) | > 100 µM (inactive) | > 100 µM (inactive) | > 100 µM (inactive) | > 100 µM (inactive) | > 100 µM (inactive) | > 100 µM (inactive) | > 100 µM (inactive) | > 100 µM (inactive) | > 100 µM (inactive) | > 100 µM (inactive) | > 100 µM (inactive) | 
NC(=O)NC(=O)Nc1ccc(Br)cc1 | 9.79 µM (inactive) | > 20 µM (inactive) | > 9.38 µM (inactive) | 3.46 µM (inactive) | > 100 µM (inactive) | 3.3 µM (inactive) | 18.5 µM (inactive) | 5.45 µM (inactive) | 3.78 µM (inactive) | > 14.5 µM (inactive) | > 8.61 µM (inactive) |  | 23.9 µM (inactive) | 6.14 µM (inactive) | 7.67 µM (inactive) | > 11.9 µM (inactive) | 6.03 µM (inactive) | 10.3 µM (inactive) | 14.7 µM (inactive) | 8.45 µM (inactive)
CO[P@@]1(=O)O[C@@H](c2ccccc2)[C@H](O)[C@@]1(O)c1ccccc1 | > 100 µM (inactive) | > 100 µM (inactive) | > 100 µM (inactive) | 45.6 µM (inactive) | 91.8 µM (inactive) | > 100 µM (inactive) | > 100 µM (inactive) | > 100 µM (inactive) | 22.8 µM (inactive) | > 100 µM (inactive) | > 100 µM (inactive) | > 100 µM (inactive) | > 100 µM (inactive) | > 100 µM (inactive) | > 100 µM (inactive) | > 100 µM (inactive) | > 100 µM (inactive) |  | > 100 µM (inactive) | > 100 µM (inactive)
c1cc(-c2ncc(-c3ccc4c(c3)CCCO4)o2)ccn1 | 10.6 µM (inactive) | 13.2 µM (inactive) | 20 µM (inactive) | 7.4 µM (inactive) | 17.4 µM (inactive) | 1.85 µM (inactive) | 21.6 µM (inactive) | 12.8 µM (inactive) | 3.06 µM (inactive) | 14.7 µM (inactive) |  | 11.4 µM (inactive) | 11.5 µM (inactive) | 11.6 µM (inactive) | 9.2 µM (inactive) | 8.79 µM (inactive) | 12.5 µM (inactive) | 8.47 µM (inactive) | 16.6 µM (inactive) | 8.41 µM (inactive)
COC(=O)C1(C)CCCC2(C)C3CCC4CC3(C=C4CO)CCC12 (stereo unspecified) | 87.9 µM (inactive) | 49.3 µM (inactive) | 43.8 µM (inactive) | 16.2 µM (inactive) | > 100 µM (inactive) |  | 93.8 µM (inactive) | 22.8 µM (inactive) | 27.8 µM (inactive) | 38.1 µM (inactive) |  | 42.1 µM (inactive) | 33.1 µM (inactive) | 66.7 µM (inactive) | 37.2 µM (inactive) | 28.2 µM (inactive) | 34.4 µM (inactive) | 24.9 µM (inactive) | 60.4 µM (inactive) | 20.7 µM (inactive)
CC(C)CC1NC(=O)C(C(C)C)NC(=O)CC(C)COC(=O)C(CC(C)C)N(C)C(=O)C(C(C)C)NC(=O)C(C(C)C)OC1=O (stereo unspecified) | > 50 µM (inactive) | > 50 µM (inactive) | 48.9 µM (inactive) | > 50 µM (inactive) | 26.7 µM (inactive) | > 50 µM (inactive) | 38.5 µM (inactive) | > 50 µM (inactive) | > 50 µM (inactive) | > 50 µM (inactive) | > 50 µM (inactive) | > 50 µM (inactive) | > 50 µM (inactive) | > 50 µM (inactive) | > 50 µM (inactive) | 17.1 µM (inactive) | > 50 µM (inactive) |  | 38.4 µM (inactive) | 23.5 µM (inactive)
CC(C)(Cl)C(Br)CCC(C)(Cl)C(Br)CBr (stereo unspecified) | 22.5 µM (inactive) | 13.3 µM (inactive) |  | 19.5 µM (inactive) | 35.7 µM (inactive) | 22.5 µM (inactive) | 34.5 µM (inactive) | 17.6 µM (inactive) | 41.2 µM (inactive) | 20.7 µM (inactive) | 20 µM (inactive) | 25.1 µM (inactive) | 27.2 µM (inactive) | 29.1 µM (inactive) | 18.2 µM (inactive) | 39.4 µM (inactive) | 30.5 µM (inactive) | 18.1 µM (inactive) | 20.2 µM (inactive) | 
Nc1ncc2c(n1)-c1ccccc1OC2NC1CC1 (stereo unspecified) | > 100 µM (inactive) | > 100 µM (inactive) | > 100 µM (inactive) | > 100 µM (inactive) | > 100 µM (inactive) |  | > 100 µM (inactive) | > 100 µM (inactive) | > 100 µM (inactive) | > 100 µM (inactive) | > 100 µM (inactive) | > 100 µM (inactive) | > 100 µM (inactive) |  | > 100 µM (inactive) | > 100 µM (inactive) | > 100 µM (inactive) | > 100 µM (inactive) | > 100 µM (inactive) | > 100 µM (inactive)
C[C@]12CC/C(=N\O)C=C1CC[C@@H]1[C@@H]2CC[C@]2(C)C(=N/O)/C(=C/c3ccncc3)C[C@@H]12 |  | 36.1 µM (inactive) | 24.2 µM (inactive) | 11.5 µM (inactive) | 86.5 µM (inactive) | 26.4 µM (inactive) | 13.5 µM (inactive) | 16.3 µM (inactive) | 18.8 µM (inactive) | 31.5 µM (inactive) | 14.6 µM (inactive) | 20 µM (inactive) | 14 µM (inactive) | 39.8 µM (inactive) | 7 µM (inactive) | 28.8 µM (inactive) | 19.7 µM (inactive) | 6.85 µM (inactive) | 31.3 µM (inactive) | 20 µM (inactive)
COc1ccc2cc1Oc1ccc(cc1)CC1c3cc(OC)c(cc3CCN1C)Oc1c(OC)c(OC)cc3c1C(C2)N(C)CC3 (stereo unspecified) | 10.6 µM (inactive) | 10.8 µM (inactive) | 11.2 µM (inactive) | 8.79 µM (inactive) | 10.8 µM (inactive) | 7.94 µM (inactive) | 4.91 µM (inactive) | 14.6 µM (inactive) | 10.4 µM (inactive) | 15.1 µM (inactive) | 10.2 µM (inactive) |  | 11.9 µM (inactive) | 14.5 µM (inactive) | 6.79 µM (inactive) | 12.7 µM (inactive) | 9.93 µM (inactive) |  | 9.06 µM (inactive) | 9.98 µM (inactive)
CC1=CC(=O)/C(=C/NC(=S)NCc2ccccc2)C(=O)O1 | 43.9 µM (inactive) | > 100 µM (inactive) | > 100 µM (inactive) | > 100 µM (inactive) | > 100 µM (inactive) |  | > 100 µM (inactive) | > 100 µM (inactive) | 52.2 µM (inactive) | > 100 µM (inactive) | > 100 µM (inactive) | > 100 µM (inactive) | > 100 µM (inactive) | > 100 µM (inactive) | > 100 µM (inactive) | > 100 µM (inactive) | > 100 µM (inactive) |  | > 100 µM (inactive) | > 100 µM (inactive)
S=C(S)N1CCN(c2ccc(Cl)c(Cl)c2)CC1 | 18 µM (inactive) | 51.3 µM (inactive) | 27.5 µM (inactive) | 20.8 µM (inactive) | 23.4 µM (inactive) | 19.3 µM (inactive) | 19.7 µM (inactive) | 25.8 µM (inactive) |  |  |  | 21.3 µM (inactive) | 19.6 µM (inactive) | 25.4 µM (inactive) | 16.1 µM (inactive) | 42.5 µM (inactive) | 16.6 µM (inactive) | 19.5 µM (inactive) | 28.7 µM (inactive) | 16.6 µM (inactive)
CCN(CC)COC(=S)S | > 100 µM (inactive) | > 94.6 µM (inactive) | > 67 µM (inactive) | 39 µM (inactive) | > 100 µM (inactive) | 38 µM (inactive) | 44.1 µM (inactive) | > 100 µM (inactive) | 22.3 µM (inactive) | > 100 µM (inactive) | 30.1 µM (inactive) | 0.0516 µM (active) | 33.3 µM (inactive) | > 100 µM (inactive) | 21.6 µM (inactive) | > 100 µM (inactive) | > 100 µM (inactive) |  | > 77.6 µM (inactive) | 41.8 µM (inactive)
CC(=O)OC(C)c1cc2c(s1)C(=O)c1ccsc1C2=O (stereo unspecified) | 1.82 µM (inactive) | 0.167 µM (active) | 0.895 µM (active) | 0.17 µM (active) | 0.154 µM (active) | 0.131 µM (active) | 0.129 µM (active) | 0.0513 µM (active) | 0.262 µM (active) | 0.0575 µM (active) |  | 0.0405 µM (active) | 0.041 µM (active) | 0.172 µM (active) | 0.0273 µM (active) | 0.166 µM (active) | 0.437 µM (active) | 0.0826 µM (active) | 0.113 µM (active) | 0.0117 µM (active)
